≈ marks a conversion by molar mass, not a printed value. Entries after “also recorded” stand apart in the source; their conditions may differ.
Assays:
[1] = molecular target: T1, F508del CFTR (Homo sapiens, UniProt P13569, DEL508-508); experiment: CFTR potentiator activity, Ussing chamber assay in primary bronchial epithelia (CFhBE); assay type: cell-based
T1 construct: human primary bronchial epithelia obtained from donors with the homozygous F508del CFTR missense mutation (CFhBE); endogenous in cells; host or cells: human primary bronchial epithelial cells (CFhBE) from donors homozygous for F508del
T1 sequence (P13569 with tags, fused parts or gaps DEL508-508): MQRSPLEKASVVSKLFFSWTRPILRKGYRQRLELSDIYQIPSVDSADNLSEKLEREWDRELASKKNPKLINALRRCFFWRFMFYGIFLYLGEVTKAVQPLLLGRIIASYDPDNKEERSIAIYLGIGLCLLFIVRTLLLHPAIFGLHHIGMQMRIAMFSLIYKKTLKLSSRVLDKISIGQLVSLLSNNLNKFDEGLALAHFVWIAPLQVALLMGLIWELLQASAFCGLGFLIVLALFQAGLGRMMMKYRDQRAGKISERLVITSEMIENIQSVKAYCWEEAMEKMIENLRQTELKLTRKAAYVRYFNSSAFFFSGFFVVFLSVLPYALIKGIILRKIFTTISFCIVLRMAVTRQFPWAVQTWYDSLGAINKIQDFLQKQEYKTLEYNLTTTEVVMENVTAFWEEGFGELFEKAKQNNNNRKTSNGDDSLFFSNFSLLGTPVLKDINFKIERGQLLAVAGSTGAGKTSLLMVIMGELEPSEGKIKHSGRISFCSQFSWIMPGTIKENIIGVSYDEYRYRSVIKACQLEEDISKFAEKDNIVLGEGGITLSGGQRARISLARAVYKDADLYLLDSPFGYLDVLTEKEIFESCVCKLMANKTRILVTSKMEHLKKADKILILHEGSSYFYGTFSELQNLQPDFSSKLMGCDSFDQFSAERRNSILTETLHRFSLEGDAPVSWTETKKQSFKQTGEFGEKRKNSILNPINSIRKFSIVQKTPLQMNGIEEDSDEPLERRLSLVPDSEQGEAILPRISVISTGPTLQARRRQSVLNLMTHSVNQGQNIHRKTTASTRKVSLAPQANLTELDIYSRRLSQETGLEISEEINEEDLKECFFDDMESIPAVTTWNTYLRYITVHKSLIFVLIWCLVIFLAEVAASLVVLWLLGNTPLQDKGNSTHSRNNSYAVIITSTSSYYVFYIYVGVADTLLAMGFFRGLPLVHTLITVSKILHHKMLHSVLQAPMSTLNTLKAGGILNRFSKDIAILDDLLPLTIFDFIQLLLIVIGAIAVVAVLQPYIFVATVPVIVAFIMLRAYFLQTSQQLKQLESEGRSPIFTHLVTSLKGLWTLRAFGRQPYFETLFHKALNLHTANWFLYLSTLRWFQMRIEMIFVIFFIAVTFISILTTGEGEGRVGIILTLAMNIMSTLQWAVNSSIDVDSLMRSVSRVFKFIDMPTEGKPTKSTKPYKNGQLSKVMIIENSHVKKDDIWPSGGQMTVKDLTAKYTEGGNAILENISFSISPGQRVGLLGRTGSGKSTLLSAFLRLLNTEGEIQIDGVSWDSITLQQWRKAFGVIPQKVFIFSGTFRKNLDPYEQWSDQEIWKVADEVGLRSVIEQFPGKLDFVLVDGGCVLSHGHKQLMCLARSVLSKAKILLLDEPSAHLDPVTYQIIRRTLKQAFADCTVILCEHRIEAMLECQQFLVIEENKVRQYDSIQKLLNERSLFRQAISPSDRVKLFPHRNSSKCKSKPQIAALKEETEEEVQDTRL
Protocol: Chloride ion channel potentiator activity of the compound of Formula I (Compound 10) and ivacaftor was evaluated in monlayer cultures of human primary bronchial epithelia obtained from donors with the homozygous F508del CFTR missense mutation (CFhBE) using Ussing assay technology.
The Ussing chamber assay is a well-established method for measurement of transport across epithelia of a wide variety of transport substrates (Clark, American Journal of Physiology.Gastrointestinal and liver Physiology, 2009, 296, G1151-1166). The Ussing half-chambers permit both apical and basolateral surfaces of an epithelium to be exposed to identical solutions, eliminating the chemical concentration gradient for movement of molecules across the epithelium. Under these symmetric solution conditions, the epithelium generates a transepithelial potential by activity of ion selective channels and active transport processes asymmetrically distributed in apical and basolateral membranes. The epithelium is maintained at a potential difference of 0 mV. The negative feedback circuit used for controlling the potential difference at 0 mV is called a voltage clamp circuit. Any current generated by the voltage clamp to maintain the transepithelial potential at 0 mV can arise only from biological active transport processes in the epithelial cells and the current (called short circuit current (ISC)) is a direct measure of these processes. Efflux of chloride to the apical surface is enabled by opening of apical CFTR channels, which allows water to move to the cellular surface and keep the tissue hydrated.

[2] = Solubility by nephelometry (turbidity) in HEPES-buffered physiological saline with 0.3% DMSO; assay type: physicochemical; conditions: HB-PS with 0.3% DMSO; for solubility: HEPES-buffered physiological saline with 0.3% DMSO, aqueous buffer, kinetic from dmso stock, interpolated from solubility and turbidity plots, read-out: Solubility limit
Protocol: Solubility of the compound of Formula I (Compound 10) and ivacaftor was evaluated in HEPES-buffered physiological saline solution (HB-PS) with 0.3% DMSO. Solubility was measured as absence of turbidity using microparticualtes light-scattering technology in nephelometer and output expressed as nephelometry turbidity units (NTU). The HEPES buffer with 0.3% DMSO was the media used for the Ussing Chamber assays as described below. Concentrations of Compound 10 and ivacaftor tested in duplicate were 0, 0.01, 0.03, 0.1, 0.3, 1, 3, 10, 30 μM. The NIST traceable reference standard at 0, 0.2, 0.6 and 1 NTU were measured in duplicate as a reference standard for turbidity. The NTU values were plotted against the concentrations of Compound 10 and ivacaftor.

[3] = Metabolic stability in human liver microsomes with NADPH generating system; assay type: in vitro ADME; conditions: for Substrate remaining (%) / Substrate loss (%) / microsomal CLint at 1 uM / half-life at 1 uM: 1 μM substrate; for microsomal CLint at 1 uM: read-out: Estimated in vitro intrinsic clearance (μL/min/mg protein); for half-life at 1 uM: read-out: Half-life estimated from single exponential decay; for Metabolic stability (in words): substrate in the presence of human liver microsomes
Protocol: The compound of Formula I (Compound 10) (1 uM) and ivacaftor (1 uM) were incubated with human liver microsomes (1 mg/mL protein/mL) in the presence of NADPH generating system (NADP (1 mM, ph7, glucose-6-phosphate (5 mM ph 7.4) and glucose-6-phosphate dehydrogenase (1 Unit/mL) for 0, 30, 60, and 120 minutes. Remaining substrate was measured by LC-MS/MS. Concentration of the test article was converted to percent drug remaining relative to the concentration of the test article at Time Zero.

[4] = human liver microsomes, 120 min

## CC(C)(C)c1cc(C(C)(C)C)c(OCCOc2cc(NC(=O)c3c[nH]c4ccccc4c3=O)c(C(C)(C)C)cc2C(C)(C)C)cc1NC(=O)c1c[nH]c2ccccc2c1=O [Compound of Formula I, N,N′-((ethane-1,2-diylbis(oxy))bis(2,4-di-tert-butyl-5,1-phenylene))bis(4-oxo-1,4-dihydroquinoline-3-carboxamide)]
[1]; based on solubility difference between the compound and ivacaftor
  Potency relative to ivacaftor (times more potent): at least 15 times
[1]; homozygous F508del CFhBE monolayers, short circuit current, FIGS. 2A and 2B
  Potentiator response (in words): potentiator response is similar to ivacaftor; also recorded: potentiated F508del CFTR
[1]; homozygous F508del CFhBE, FIGS. 2A and 2B
  Duration/stability of potentiator response (in words): appears to remain stable longer than ivacftor
[2]
  Solubility relative to ivacaftor (times less soluble): 57.4 times
  solubility: 0.137 µM
[3]; human liver microsomes
  Metabolism back to ivacaftor or ivacaftor metabolites (in words): not to substantially metabolize to ivacaftor, hydroxymethyl-ivacaftor or ivacaftor-carboxylate; also recorded: does not revert back to ivacaftor
  microsomal CLint at 1 uM: < 5.78 µL/min/mg
  half-life at 1 uM: > 2 h
[3]; human liver microsomes, 0 min
  Substrate remaining (%): 100%
[3]; human liver microsomes, 30 min
  Substrate loss (%): No loss
  Substrate remaining (%): 108%
[3]; human liver microsomes, 60 min
  Substrate loss (%): No loss
  Substrate remaining (%): 107%
[3]; [4]
  Substrate loss (%): No loss
  Substrate remaining (%): 120%
[3]
  Metabolic stability (in words): metabolically stable
[3]; listed as compound represented by Formula I
  Metabolic stability (in words): chemically and metabolically stable

## CC(C)(C)c1cc(C(C)(C)C)c(NC(=O)c2c[nH]c3ccccc3c2=O)cc1O [ivacaftor, reference compound]
[2]
  solubility: 7.86 µM (≈ 3.09 µg/mL)
[3]; human liver microsomes, 0 min
  Substrate remaining (%): 100%
[3]; human liver microsomes, 30 min
  Substrate loss (%): 30.4%
  Substrate remaining (%): 69.6%
[3]; human liver microsomes, 60 min
  Substrate loss (%): 49.1%
  Substrate remaining (%): 50.9%
[3]; [4]
  Substrate loss (%): 69.5%
  Substrate remaining (%): 30.5%
[3]; human liver microsomes
  microsomal CLint at 1 uM: 10.6 µL/min/mg
  half-life at 1 uM: 1.09 h
[3]; incubated with human liver microsomes (text summary of Table 1)
  Fraction metabolized: ~70%
